Data on 1 compound can be found in patent EP0084757A1, “Trisubstituted diaza derivatives” (CIBA-GEIGY AG, priority 1982, dated 1983).

Converted amounts (≈) assume the structure as drawn.

The subject of this experiment is mit Crotonöl induzierten Rattenohroedems. As to the kind of experiment: Inhibition of croton oil-induced rat ear oedema (method of Tonelli and Thibault). The experiment is classed as in vivo, Normalratte. The settings on record: inhibition of croton oil-induced ear oedema in the normal rat; local application. As for the experimental part: Diese Eigenschaft lässt sich beispielsweise nach der von G. Tonelli, L. Thibault, Endocrinology 77, 625 (1965) entwickelten Methode durch Hemmung des mit Crotonöl induzierten Rattenohroedems bei der Normalratte im Dosisbereich von etwa 1 bis etwa 100 mg/ml nachweisen.

Consider `COC(Cc1nc(-c2ccccc2)c(-c2cccnc2)[nH]1)OC` [2-[4(5)-Phenyl-5(4)-(3-pyridyl)-imidazol-2-yl]-acetaldehyd-dimethylacetal], for which the ED50-Wert stood at 18 mg/mL (≈ 58.2 mM).
